Assay results published in PMC6270234, “Chemical Composition of Aspidosperma ulei Markgr. and Antiplasmodial Activity of Selected Indole Alkaloids” (Molecules, 2013).
Several values for one entry are separate records, joined by “and”; a condition that tells them apart may be missing. Equal entries are not always repeated. Entries after “also recorded” stand apart in the source; their conditions may differ. Where two headings read alike, the source gives them in different places.

How the values were obtained:
[1] = test system: NIH3T3 murine fibroblasts; assay: Cytotoxicity test using the Alamar Blue assay; assay type: cell-based; settings: Mus musculus, 48 h, tested at 50 µg/mL, read-out: IC50 (toxicity to fibroblasts)
Description: The NHI-3T3 cell line of mouse fibroblasts was grown in DMEN medium supplemented with 10% fetal bovine serum, 2 mM glutamine, 100 µg/mL streptomycin and 100 U/mL penicillin, and incubated at 37 °C with a 5% atmosphere of CO2. For assays, the cells were plated in 96-well plates (10^4 cells per well) and the Alamar Blue^TM assay was performed using previously described procedures. Briefly, after 24 h, the compounds were dissolved in DMSO and added to each well to give final concentrations of 50 µg/mL. Plates were incubated for 48 h. Control groups had final well concentrations of 0.1% DMSO. Two hours before the end of the incubations, 10 µL of Alamar Blue^TM was added to each well. The fluorescent signal was monitored with a multiplate reader using 530–560 nm excitation and 590 nm emission wavelengths.

[2] = test system: multi-drug resistant K1 strain of Plasmodium falciparum; assay: In vitro antiplasmodial assay, inhibition of growth of parasites by optical microscopy; assay type: cell-based; settings: for IC50: Plasmodium falciparum, K1, 48 h, read-out: IC50 ± SD; for Result: activity class from IC50 in µM, K1 strain
Description: The in vitro antiplasmodial test was performed as previously described. […] Sample solutions were applied to the wells of 96-well test plates containing red blood cell suspension having initial parasitemia of 1.5%. […] After incubation, the contents of the wells were evaluated by optical microscopy. The inhibition of the growth of parasites (IGP%) was evaluated as a percentage by comparison with controls:
IGP% = 100 × [1 – (parasitemia with sample/parasitemia of untreated controls)]

[3] = test system: chloroquine-resistant Fc M29-Cameroon strain of Plasmodium falciparum; design: method as in PMID 21612900; settings: cited from earlier work
Plasmodium berghei = test system: Plasmodium berghei; design: method as in PMID 23092722; settings: Plasmodium berghei-infected mice, daily doses of 50-100 mg/kg/day, 4-day suppressive test; cited from earlier work
[4] = cited from earlier work
[5] = test system: K1 strain of P. falciparum; design: method as in PMID 17568942, PMID 23092722; settings: cited from earlier work
[6] = P. falciparum K1 strain, 48 h incubation

SMILES | IC50 [1] | IC50 [2, 6] | Result [2] | also measured
COC(=O)[C@@H]1[C@H]2Cc3c4[nH]c5ccccc5c4cc[n+]3C[C@@H]2CC[C@H]1O [Compound 3, 3,4,5,6-tetradehydro-β-yohimbine] | > 50 µg/mL | 39.9 ± 7.7 µM | I (IC50 > 20.0 µM = inactive (I)) | melting point: 260 to 264 °C
CC=C1C[N+]23CCC1CC21Nc2ccccc2C1(O)CC3 (stereo not shown) [Compound 4, 19E-hunteracine] | > 50 µg/mL | > 176 µM | I (IC50 > 20.0 µM = inactive (I)) | melting point: 343 to 343.3 °C
COC(=O)[C@@H]1[C@H]2CC3c4[nH]c5ccccc5c4CCN3C[C@@H]2CC[C@H]1O (stereo partly drawn) [Compound 5, β-yohimbine] |  |  |  | IC50 [3]: > 1 µg/mL
COC(=O)[C@@H]1[C@H]2C[C@H]3c4[nH]c5ccccc5c4CCN3C[C@@H]2CC[C@@H]1O [Compound 6, yohimbine] |  |  |  | IC50 [3]: > 1 µg/mL
Cc1nccc2c(C)c3[nH]c4ccccc4c3cc12 [Compound 8, olivacine] |  |  |  | in vivo antimalarial activity (in words) (Plasmodium berghei): high in vivo antimalarial activity; cytotoxicity (in words) [4]: low cytotoxicity; in vitro antiplasmodial activity (in words) [5]: significant in vitro antiplasmodial activity
CCC1C2CCN(C)C1c1c([nH]c3ccccc13)C2=O (stereo not drawn) [Compound 11, 20-epi-dasycarpidone] | > 50 µg/mL | 4.5 µg/mL and 16.7 µM | MA (IC50 5–20 µM = moderately active (MA)) | melting point: 164.3 to 165.3 °C; in vitro antiplasmodial activity (in words) ([2]; P. falciparum K1 strain): active; also recorded: moderate inhibitory activity
C/C=C1\CN2CCc3c([nH]c4ccccc34)CC1CC2 (stereo not shown) [Compound 12, 20(E)-nor-subincanadine E] | > 50 µg/mL | 54.3 ± 10.5 µM | I (IC50 > 20.0 µM = inactive (I)) | 
CC(=O)N1c2c(O)cccc2C23CC[N+]4=C2C(CC(=O)O)(CCC4)CCC13 (stereo not shown) [Compound 13, 12-hydroxy-N-acetyl-21(N)-dehydroplumeran-18-oic acid] | > 50 µg/mL | > 135 µM | I (IC50 > 20.0 µM = inactive (I)) | 
CC[C@@]12CCCN3CC[C@]4(c5ccc(OC)c(O)c5N(C(C)=O)[C@@H]4CC1)[C@H]32 [aspidocarpine] |  |  |  | in vitro antiplasmodial activity (in words) [5]: significant in vitro antiplasmodial activity
CCN(CC)CCCC(C)Nc1ccnc2cc(Cl)ccc12 (stereo not shown) [chloroquine diphosphate, reference compound] |  |  | A (0.1 < IC50 < 5 µM = active (A)) | IC50 [2]: 0.17 µg/mL and 330 nM
Cc1c2ccncc2c(C)c2c1[nH]c1ccccc12 [ellipticine, reference compound] |  |  |  | in vivo antimalarial activity (in words) (Plasmodium berghei): high in vivo antimalarial activity; cytotoxicity (in words) [4]: low cytotoxicity; in vitro antiplasmodial activity (in words) [5]: significant in vitro antiplasmodial activity
C=C[C@H]1C[N@@]2CC[C@H]1C[C@H]2[C@H](O)c1ccnc2ccc(OC)cc12 [quinine sulphate, reference compound] |  | 0.12 µg/mL and 300 nM |  | 
